In US20090208508A1, “NOVEL USE OF UBIQUITIN C-TERMINAL HYDROLASE-L1” (SK CORPORATION, priority 2005, published 2009):

What was measured:
UCH-L1 [1] = experiment: Preliminary experiments: UCH-L1 expression level with siRNA on mouse-base sequences; format: cell-based
UCH-L1 [2] = experiment: Western blotting of UCH-L1 expression in B16F10 stable cells expressing UCH-L1 specific RNAi (lentivirus); format: cell-based, mouse; settings: Zeocin-selected, in comparison with normal B16F10 cells and cells expressing irrelevant RNAi (SEQ ID No. 3)
Experimental: The expression level of UCH-L1 in B16F10 mouse melanoma cell line was analyzed by using the Western blotting with anti-UCH-L1 antibody in comparison with that of H157 lung cancer cell line overexpressing UCH-L1. It was determined that UCH-L1 is expressed also in B16F10 cell lines.
B16F10 cells (2.5×10^5 cells, 70˜80% confluency) were seeded on the cell culture dish. After 24 h, these cells were infected with 1 mL of lentivirus (VCA™, Vectorcorea, Inc., Seoul, Korea) expressing irrelevant RNAi or UCH-L1 specific RNAi. 500 μL ( ? ) (virus titer 1[…]10^7 IFU/mL) of lentivirus expressing the sequence specific shRNAi (SEQ ID Nos. 3, 8, 9, and 10) was used for infection of 2.5×10^5 of B16F10 cells.
Polyburene ([…]) was added thereto, then the cell culture dish was shaken slowly up and down. After incubation for 6 h at 37[…] under 5% CO2, the virus soup was changed with the RPMI-1640 supplemented with 10% FBS. B16F10 cells were infected at twice with lentivirus on 24th hour after the first infection. However the incubation time for second infection was 12 h, not 6 h. After 24 h from the second infection, B16F 10 cells were harvested with trypsin and subcultured on the other dish by diluting the cells with RPMI-1640 (1/16 dilution).
After 24 h, cells were maintained with the cell culture media with 5 μg/mL of Zeocin. For about 14 days, the cell culture media was changed with fresh media containing same amount of Zeocin every three days. On 14th day after start of selection with Zeocin, only cells having the resistance to Zeocin were survival and these cells were infected with lentivirus stably expressing UCH-L1 specific RNAi (shRNAi, short hairpin RNA). On 14th day after start of selection with Zeocin, the colony was formed by the cells having the resistance to Zeocin. The colonized cells were selected and re-subcultured with fresh media. From this method, we could prepare UCH-L1 expression reduced stable cell lines. […]

[3] = test system: B16F10 mouse melanoma cells; experiment: Experimental pulmonary metastasis: B16F10 stable cells injected into tail vein, black colonies on lung surface counted; format: in vivo, BALB/C nude mouse; settings: 1x10^6 cells single-injected into tail vein, 14th day after injection, vs control B16F10 cells expressing irrelevant RNAi
Experimental: We tried to elucidate whether UCH-L1 is a key target molecule related to cancer metastasis through the experimental metastasis using animal model. Normal B16F10 mouse melanoma cells are highly invasive and its first target organ in metastatic process is lung. Using lentivirus-based system, we prepared the B16F10 stable cells in which UCH-L1 was knock-downed.
After preparing B16F10 stable cells, we examined whether the metastasis to lung was decreased when the B16F 10 stable cells were injected intravenously into the tail vein.
As stated above, after the UCH-L1 expression knock-downed B 16F 10 stable cells were selected with Zeocin, these cells (1[…]10^6 cells) were single-injected into the tail vein of BALB/C nude mouse. On 14th day after injection, the metastasis to lung was investigated. (For control set, BALB/C mouse were injected with same amount of B16F10 stable cells expressing irrelevant RNAi (control lentiviral vector))

UCH-L1 [4] = experiment: Preliminary experiments: UCH-L1 expression level with siRNA on human-base sequences; format: cell-based

Substance	expression level of UCH-L1 (UCH-L1 [1])	expression of UCH-L1 (Western blotting) (UCH-L1 [2])	reduction of metastasis to lung (black spherical colonies on lung surface) [3] [%]	expression level of UCH-L1 (UCH-L1 [4])
mb: UCH-L1 specific shRNAi (SEQ ID No. 10), mouse target sequence, expressed by lentivirus (guide CCTAAAGTTTACTTCATGAAG; listed as Mus musculus)	effectively reduced	reduced	62	–
ma: UCH-L1 specific shRNAi (SEQ ID No. 9), mouse target sequence, expressed by lentivirus (guide AGCTGAAGCCGATGGAGATTA; listed as Mus musculus)	–	not reduced	–	–
ha: UCH-L1 specific shRNAi (SEQ ID No. 8), target sequence common to human and mouse, expressed by lentivirus (guide CCCGAGATGCTGAACAAAG; listed as Homo sapiens)	effectively reduced	reduced	92	effectively reduced
